Source: patent publication US20150148235A1, “HERBICIDE-RESISTANT SUNFLOWER PLANTS WITH MULTIPLE HERBICIDE RESISTANT ALLELES OF AHASL1 AND METHODS OF USE” (NIDERA S.A., priority 2013, published 2015)
Where two headings read alike, the source gives them in different places.

Legend:
[1] = tested on: sunflower hybrids H1, H2, H3, H5, H6; conditions: in vivo
[2] = tested on: sunflower hybrids and lines (A122T, A205V, A205V/A122T); assay: Field trial North Dakota 2006, phytotoxicity ratings after imazamox or imazapyr, Example 3; format: in vivo, Helianthus annuus; conditions: for Phytotoxicity Rating (% Crop Injury): 160 g ai/ha + 0.25% NIS
Procedure: • Spray volume: 10 gallons per acre (GPA) (or 100 liters/ha) for backpack sprayer or 20 GPA (or 200 liters/ha) for tractor mounted boom • Growth Stage at Herbicide Application: 2-4 leaves
Entry 15 (WT Maintainer line) was left unsprayed in all treatment blocks.
Phytotoxicity ratings were assessed at 7 and 21 days following herbicide application.
The data was subjected to an ANOVA analysis and the means from the 3 repetitions are presented in Table 7 (phytotoxicity at 7 days post-treatment) and Table 8 (phytotoxicity at 21 days post-treatment).

[3] = tested on: sunflower hybrids H1, H2, H3, H5, H6; assay: Field trial Venado Tuerto 2006, imazapyr applied at V8 or R1 stage, Phytotoxicity Index, Example 4; conditions: for Mean Phytotoxicity Index (scale 0-50): H5 (L3 × WT, 122/Wild type), 160 g ai/ha applied at R1
[4] = tested on: AHAS enzyme, A122T/A205V Heterozygous sunflower; assay: AHAS enzyme activity assay, leaf extract; format: biochemical, Helianthus annuus; conditions: A122T/A205V heterozygous hybrid (Set 1); 100 μM
Procedure: (§1) Twelve greenhouse grown sunflower plants from each of the lines depicted in Table 21 were bulked and subjected to an AHAS enzyme activity assay via the method of Singh et al. (1988) Anal. Biochem. 171:173-179. Each activity assay was repeated twice. Due to the large number of samples, the experiment was split into two sets (Table 21).
(§2) Young, actively growing leaves, from four week old plantlets, were ground in a mortar and pestle with liquid N2 and extracted with a buffer composed of 100 mM Pyruvate, 200 mM KH2PO4, 20 mM MgCl2, 2 mM thiamine pyrophosphate and […]. Plant extracts were then spun through a 10 mL Zeba TM desalt spin column (Pierce #89893) as per the manufacturer's recommendation. The inhibition assay was performed as described by Singh et al. (1988) Anal. Biochem. 171:173-179. Assays were conducted in a 96-well format. Fifty μl of inhibitor was added to each well containing 50 μl of soluble protein extract to give final concentrations of 0.78, 1.56, 3.125, 6.25, 12.5, 25, 50 and 100 μM imazamox or 0.78, 1.56, 3.125, 6.25, 12.5, 25, 50 and 100 μM imazapyr. Zero herbicide controls were also included for each line. Reactions were processed as outlined by Singh et al. (1988) Anal. Biochem. 171:173-179. Absorbance was measured at 530 nm. AHAS activity, expressed as the mean of the absorbance values for each treatment, was presented as a percentage of the mean of the zero-herbicide controls.

[5] = tested on: AHAS enzyme, A122T Homozygous sunflower; assay: AHAS enzyme activity assay, leaf extract; format: biochemical, Helianthus annuus; conditions: A122T homozygous hybrid (Set 1); 100 μM
Procedure: as §1, §2

[6] = tested on: AHAS enzyme, A205V Homozygous sunflower; assay: AHAS enzyme activity assay, leaf extract; format: biochemical, Helianthus annuus; conditions: A205V homozygous hybrid (Set 1); 100 μM
Procedure: as §1, §2

With CC(C)C1(C)N=C(c2ncccc2C(=O)O)NC1=O (stereo not drawn) [imazapyr] the “Phytotoxicity Index (scale 0-50)” value [1] was “greater than 35”, the “Phytotoxicity Rating (% Crop Injury)” value ([2]; 1-hybrid (WT × IMI restorer, A205 hetero), 7 DAT) was 16.7% and the “Phytotoxicity Rating (% Crop Injury)” value ([2]; 1-hybrid (WT × IMI restorer, A205 hetero), 21 DAT) was 20.0%. For the same molecule, the “Phytotoxicity Rating (% Crop Injury)” value ([2]; 3-hybrid (WT × IMI restorer, A205 hetero), 7 DAT) was 35.0%, the “Phytotoxicity Rating (% Crop Injury)” value ([2]; 3-hybrid (WT × IMI restorer, A205 hetero), 21 DAT) was 43.3% and the “Phytotoxicity Rating (% Crop Injury)” value ([2]; 4-line (IMI Restorer, A205 homo), 7 DAT) was 11.7%. For the same molecule, the “Phytotoxicity Rating (% Crop Injury)” value ([2]; 4-line (IMI Restorer, A205 homo), 21 DAT) was 6.7%, the “Phytotoxicity Rating (% Crop Injury)” value ([2]; 6-hybrid (IMI CMS × IMI restorer, A205 homo), 7 DAT) was 8.3% and the “Phytotoxicity Rating (% Crop Injury)” value ([2]; 6-hybrid (IMI CMS × IMI restorer, A205 homo), 21 DAT) was 3.3%. The “Phytotoxicity Rating (% Crop Injury)” value ([2]; 7-hybrid (WT-CMS × IMI restorer, A205 hetero), 7 DAT) was 21.7%, the “Phytotoxicity Rating (% Crop Injury)” value ([2]; 7-hybrid (WT-CMS × IMI restorer, A205 hetero), 21 DAT) was 36.7% and the “Phytotoxicity Rating (% Crop Injury)” value ([2]; 8-hybrid (WT × GM40 restorer, A122 hetero), 7 DAT) was 13.3%. The “Phytotoxicity Rating (% Crop Injury)” value ([2]; 8-hybrid (WT × GM40 restorer, A122 hetero), 21 DAT) was 11.7%, the “Phytotoxicity Rating (% Crop Injury)” value ([2]; 9-line (GM40 restorer, A122 homo), 7 DAT) was 8.3% and the “Phytotoxicity Rating (% Crop Injury)” value ([2]; 9-line (GM40 restorer, A122 homo), 21 DAT) was 5.0%. For the same molecule, the “Phytotoxicity Rating (% Crop Injury)” value ([2]; 10-hybrid (IMI CMS × GM40 restorer, A205/A122 hetero/double), 7 DAT) was 3.3%, the “Phytotoxicity Rating (% Crop Injury)” value ([2]; 10-hybrid (IMI CMS × GM40 restorer, A205/A122 hetero/double), 21 DAT) was 0.0% and the “Phytotoxicity Rating (% Crop Injury)” value ([2]; 11-hybrid (GM40 CMS × IMI restorer, A205/A122 hetero/double), 7 DAT) was 3.3%. For the same molecule, the “Phytotoxicity Rating (% Crop Injury)” value ([2]; 11-hybrid (GM40 CMS × IMI restorer, A205/A122 hetero/double), 21 DAT) was 0.0%, the “Phytotoxicity Rating (% Crop Injury)” value ([2]; 12-hybrid (IMI CMS × GM40 restorer, A205/A122 hetero/double), 7 DAT) was 5.0% and the “Phytotoxicity Rating (% Crop Injury)” value ([2]; 12-hybrid (IMI CMS × GM40 restorer, A205/A122 hetero/double), 21 DAT) was 1.7%. For the same molecule, the “Phytotoxicity Rating (% Crop Injury)” value ([2]; 13-hybrid (GM40 CMS × GM40 restorer, A122 homo), 7 DAT) was 5.0%, the “Phytotoxicity Rating (% Crop Injury)” value ([2]; 13-hybrid (GM40 CMS × GM40 restorer, A122 homo), 21 DAT) was 1.7% and the “Phytotoxicity Rating (% Crop Injury)” value ([2]; 14-hybrid (GM40 CMS × GM40 restorer, A122 homo), 7 DAT) was 8.3%. The “Phytotoxicity Rating (% Crop Injury)” value ([2]; 14-hybrid (GM40 CMS × GM40 restorer, A122 homo), 21 DAT) was 3.3%, the “Phytotoxicity Rating (% Crop Injury)” value ([2]; 15-hybrid (WT × GM40 restorer, A122 hetero), 7 DAT) was 8.3% and the “Phytotoxicity Rating (% Crop Injury)” value ([2]; 15-hybrid (WT × GM40 restorer, A122 hetero), 21 DAT) was 21.7%. The “Phytotoxicity Rating (% Crop Injury)” value ([2]; 16-hybrid (WT × GM40 restorer, A122 hetero), 7 DAT) was 10.0%, the “Phytotoxicity Rating (% Crop Injury)” value ([2]; 16-hybrid (WT × GM40 restorer, A122 hetero), 21 DAT) was 23.3% and the phytotoxicity ([2]; heterozygous A205V entries, 160 g ai/ha, 21 DAT) was 20-43%. The “Mean Phytotoxicity Index (scale 0-50)” value ([3]; 14 DAT) was 11.7, the “Mean Phytotoxicity Index (scale 0-50)” value ([3]; 21 DAT) was 23.3 and the “Phytotoxicity Index (scale 0-50)” value ([3]; hybrids with at least one A122T allele (A122T/A122T, A122T/A205V, A122/WT), 160 g ai/ha at R1, 14 DAT) was “less than 11.7”. The AHAS activity [4] was 60%, the AHAS activity [5] was 64 % of untreated control and the AHAS activity [6] was 42 % of untreated control.
